Inhibition data for 3 molecules are collected here from article PMC8042605 (The Journal of General Physiology, 2021).

Common to all, as to assay: whole-cell patch clamp in transfected CHOK1 cells
Assay type in all cases: cell-based

Assay [1] has as its target Nav1.4 (Homo sapiens, UniProt P35499, F1586A).
Assay [2] concerns the target Nav1.4 (Homo sapiens, UniProt P35499, F432W/I1280W/I1583W/V787W).
For assay [3], the target named is T1, Nav1.4 (Homo sapiens, UniProt P35499). The settings on record: CHO-K1, read-out: % block at 1.1 mM.
T1 sequence (P35499 whole entry): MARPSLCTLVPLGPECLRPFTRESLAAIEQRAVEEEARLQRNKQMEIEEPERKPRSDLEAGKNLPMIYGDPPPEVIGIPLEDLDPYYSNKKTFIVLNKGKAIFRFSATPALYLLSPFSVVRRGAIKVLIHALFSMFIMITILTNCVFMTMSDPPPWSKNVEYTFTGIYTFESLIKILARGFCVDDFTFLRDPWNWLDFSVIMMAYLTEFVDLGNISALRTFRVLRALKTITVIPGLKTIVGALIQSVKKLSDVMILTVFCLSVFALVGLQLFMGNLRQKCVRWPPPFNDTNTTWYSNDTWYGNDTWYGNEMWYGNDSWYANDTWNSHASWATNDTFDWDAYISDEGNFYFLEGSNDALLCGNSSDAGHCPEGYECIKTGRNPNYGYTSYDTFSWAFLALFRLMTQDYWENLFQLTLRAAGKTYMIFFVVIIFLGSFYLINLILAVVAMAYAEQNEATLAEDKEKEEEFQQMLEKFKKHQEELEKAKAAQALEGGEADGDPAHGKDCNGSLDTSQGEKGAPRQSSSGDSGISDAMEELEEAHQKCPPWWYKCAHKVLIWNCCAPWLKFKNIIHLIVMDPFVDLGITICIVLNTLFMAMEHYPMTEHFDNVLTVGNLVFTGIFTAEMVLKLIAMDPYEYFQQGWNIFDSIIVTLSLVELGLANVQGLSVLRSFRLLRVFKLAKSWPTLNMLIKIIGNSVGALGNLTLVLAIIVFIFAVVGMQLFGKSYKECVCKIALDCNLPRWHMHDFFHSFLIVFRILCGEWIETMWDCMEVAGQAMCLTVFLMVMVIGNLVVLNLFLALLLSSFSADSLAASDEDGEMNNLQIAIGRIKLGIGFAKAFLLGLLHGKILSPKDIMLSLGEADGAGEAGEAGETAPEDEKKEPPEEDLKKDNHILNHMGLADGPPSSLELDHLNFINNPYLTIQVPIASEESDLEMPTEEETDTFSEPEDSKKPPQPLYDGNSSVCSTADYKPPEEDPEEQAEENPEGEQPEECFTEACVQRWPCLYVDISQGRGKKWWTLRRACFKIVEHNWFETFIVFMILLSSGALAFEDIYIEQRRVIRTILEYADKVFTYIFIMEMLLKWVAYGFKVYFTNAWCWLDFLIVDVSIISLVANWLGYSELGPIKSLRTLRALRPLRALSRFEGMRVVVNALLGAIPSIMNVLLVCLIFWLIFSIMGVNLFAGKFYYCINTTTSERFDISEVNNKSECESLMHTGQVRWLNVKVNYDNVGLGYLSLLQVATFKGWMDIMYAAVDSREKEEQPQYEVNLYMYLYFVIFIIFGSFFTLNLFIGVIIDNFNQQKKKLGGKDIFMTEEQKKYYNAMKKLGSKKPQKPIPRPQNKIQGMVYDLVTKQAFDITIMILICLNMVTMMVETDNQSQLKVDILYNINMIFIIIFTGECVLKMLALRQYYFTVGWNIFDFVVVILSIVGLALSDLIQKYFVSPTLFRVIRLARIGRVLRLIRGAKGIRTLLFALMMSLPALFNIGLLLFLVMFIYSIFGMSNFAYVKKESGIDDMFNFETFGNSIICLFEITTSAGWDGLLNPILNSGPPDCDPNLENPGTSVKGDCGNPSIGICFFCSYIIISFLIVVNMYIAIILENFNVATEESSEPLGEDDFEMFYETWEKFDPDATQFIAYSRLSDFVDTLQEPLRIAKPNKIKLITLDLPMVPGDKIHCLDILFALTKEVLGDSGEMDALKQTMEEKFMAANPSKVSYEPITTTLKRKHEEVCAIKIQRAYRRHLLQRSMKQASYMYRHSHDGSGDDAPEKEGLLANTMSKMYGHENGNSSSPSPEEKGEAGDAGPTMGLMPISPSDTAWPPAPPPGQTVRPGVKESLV
T1 sequence (Q07699 19-218 partner): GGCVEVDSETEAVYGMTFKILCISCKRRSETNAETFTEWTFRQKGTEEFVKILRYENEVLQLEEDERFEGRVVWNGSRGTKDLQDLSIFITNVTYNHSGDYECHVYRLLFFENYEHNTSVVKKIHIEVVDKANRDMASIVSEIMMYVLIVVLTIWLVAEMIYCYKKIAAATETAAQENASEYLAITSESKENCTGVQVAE
For assay [4], the target named is T1, Nav1.4. The conditions noted are these: CHO-K1, read-out: % block at 350 μM.
[5] abbreviates: CHO-K1, read-out: % block at 1.1 mM.

Nav1.4 (Homo sapiens, UniProt P35499, F432W/I1280W/I1583W/V787W), sequence (P35499 whole entry F432W/V787W/I1280W/I1583W): as the sequence (P35499 whole entry) above, with F432W, V787W, I1280W, I1583W counted along it
Nav1.4 (Homo sapiens, UniProt P35499, F432W/I1280W/I1583W/V787W), sequence (Q07699 19-218 partner): as the sequence (Q07699 19-218 partner) above
Nav1.4 (Homo sapiens, UniProt P35499, F1586A), sequence (P35499 whole entry F1586A): as the sequence (P35499 whole entry) above, with F1586A counted along it
Nav1.4 (Homo sapiens, UniProt P35499, F1586A), sequence (Q07699 19-218 partner): as the sequence (Q07699 19-218 partner) above

As to `C=C(C)[C@@H]1CCC(C)=C[C@H]1c1c(O)cc(CCCCC)cc1O` [Cannabidiol], on Nav1.4 [1] (CHO-K1, read-out: % block at 10 μM), the inhibition at 10 µM is 25.3%.

`CCN(CC)CC(=O)Nc1c(C)cccc1C` [lidocaine]: the values for the inhibition at 1100 µM at Nav1.4 [2] (setting [5]), at Nav1.4 [3] and on Nav1.4 [1] (setting [5]) were 53.6%, 60.6% and 24.6%, respectively.

For the molecule `O=C(NCC1CCCCN1)c1cc(OCC(F)(F)F)ccc1OCC(F)(F)F` (stereo not drawn) [flecainide], the inhibition at 350 µM stood at 76.4% on Nav1.4 [2] (CHO-K1, read-out: % block at 350 μM) and 64.6% at Nav1.4 [4].
